Test results: PubChem BioAssay AID330 (DTP/NCI, 2004)
“And” between values parts separate entries of the source, which are not always exact repeats. Equal values may be shown once. Toxic doses and inconclusive results are not listed. How the source made its calls: active means survival T/C of 150% or more; inactive means T/C below 125% in these data. Square brackets hold non-standard residues; d marks the D form. Peptide text beside a SMILES is read from it. * marks the point of attachment. Cbz = O=C(OCc1ccccc1)*; Nva = CCC[CH](N)C(=O)O

Tested on: P388 leukemia ip, CD2F1 mice, survival T/C
Test: NCI In Vivo Anticancer Drug Screen. Data for tumor model P388 Leukemia (intraperitoneal) in CD2F1 (CDF1) mice
Settings: endpoint: median survival time, higher = longer survival
Summary of the method: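 Mice carrying the transplanted tumor received test compound or vehicle. Survival was recorded in each group, and the value is the treated-group measurement divided by that of the vehicle-treated control group.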

[1] = dose: 50.0 mg/kg/injection, schedule: Q01DX009 (ip), vehicle: Klucel (hydroxypropylcellulose) (HPC)
[2] = dose: 100.0 mg/kg/injection, schedule: Q01DX009 (ip), vehicle: Klucel (hydroxypropylcellulose) (HPC)
[3] = dose: 200.0 mg/kg/injection, schedule: Q01DX009 (ip), vehicle: Klucel (hydroxypropylcellulose) (HPC)
[4] = dose: 60.0 mg/kg/injection, schedule: Q01DX005 (ip), vehicle: saline with Tween-80
[5] = dose: 120.0 mg/kg/injection, schedule: Q01DX005 (ip), vehicle: saline with Tween-80
[6] = dose: 240.0 mg/kg/injection, schedule: Q01DX005 (ip), vehicle: saline with Tween-80
[7] = dose: 12.5 mg/kg/injection, schedule: Q01DX009 (ip), vehicle: Klucel (hydroxypropylcellulose) (HPC)
[8] = dose: 25.0 mg/kg/injection, schedule: Q01DX009 (ip), vehicle: Klucel (hydroxypropylcellulose) (HPC)
[9] = dose: 50.0 mg/kg/injection, schedule: Q01DX005 (ip), vehicle: Klucel (hydroxypropylcellulose) (HPC)
[10] = dose: 100.0 mg/kg/injection, schedule: Q01DX005 (ip), vehicle: Klucel (hydroxypropylcellulose) (HPC)
[11] = dose: 200.0 mg/kg/injection, schedule: Q01DX005 (ip), vehicle: Klucel (hydroxypropylcellulose) (HPC)
[12] = dose: 12.5 mg/kg/injection, schedule: Q01DX009 (ip), vehicle: saline
[13] = dose: 25.0 mg/kg/injection, schedule: Q01DX009 (ip), vehicle: saline
[14] = dose: 50.0 mg/kg/injection, schedule: Q01DX009 (ip), vehicle: saline
[15] = dose: 50.0 mg/kg/injection, schedule: Q01DX009 (ip), vehicle: saline with Tween-80
[16] = dose: 100.0 mg/kg/injection, schedule: Q01DX009 (ip), vehicle: saline with Tween-80
[17] = dose: 200.0 mg/kg/injection, schedule: Q01DX009 (ip), vehicle: saline with Tween-80

Measured: T/C

COc1ccc(C/C(N)=N\O)cc1
inactive: [1] 108 % of control | [2] 106 % of control | [3] 117 % of control

CC(C)(C)OOC(=O)c1ccc2ccccc2c1
inactive: [4] 109 % of control | [5] 97 % of control | [6] 93 % of control

O=c1c2ccccc2nc(-c2ccccc2)n1O
inactive: [7] 103 % of control and 112 % of control | [8] 118 % of control and 94 % of control | [1] 120 % of control | [2] 94 % of control | [3] 91 % of control

COc1ccccc1NC(N)=S
inactive: [8] 96 % of control | [1] 98 % of control | [2] 96 % of control | [3] 97 % of control

C#CCN(C)/N=N/c1nc[nH]c1C(N)=O
inactive: [7] 115 % of control | [8] 122 % of control | [1] 120 % of control | [2] 112 % of control

CCCC(NC(=O)OCc1ccccc1)C(=O)NC(CC(C)C)C(N)=O (centres undefined) (Cbz-[Nva]-Leu-NH2; configuration not given here)
inactive: [9] 112 % of control | [10] 100 % of control | [11] 100 % of control

COC(=O)C(CCCN=C(N)N)NC(=O)C(N)CCCCN (stereo not drawn) (H-Lys-Arg-OMe; configuration not given here)
inactive: [4] 100 % of control | [5] 100 % of control | [6] 100 % of control

CCn1c2ccccc2c2ccc(N=Cc3ccc(N(C)C)cc3)cc21
inactive: [1] 89 % of control | [2] 94 % of control | [3] 103 % of control

CC(=O)Nc1ccc(S(=O)(=O)NC(C)=O)cc1
inactive: [12] 100 % of control | [13] 98 % of control | [14] 108 % of control | dose: 100.0 mg/kg/injection, schedule: Q01DX009 (ip), vehicle: saline 100 % of control

O=C(c1ccc(-c2ccccc2)cc1)C1CC1c1ccccc1 (centres undefined)
inactive: dose: 25.0 mg/kg/injection, schedule: Q01DX001 (ip), vehicle: saline sonified 109 % of control | dose: 50.0 mg/kg/injection, schedule: Q01DX001 (ip), vehicle: saline sonified 90 % of control | dose: 100.0 mg/kg/injection, schedule: Q01DX001 (ip), vehicle: saline sonified 90 % of control

CCOC(=O)C(C(=O)OCC)=C(C)/C=C/C(Cl)(Cl)Cl
inactive: dose: 100.0 mg/kg/injection, schedule: Q04DX002 (ip), vehicle: saline with Tween-80 110 % of control | dose: 200.0 mg/kg/injection, schedule: Q04DX002 (ip), vehicle: saline with Tween-80 102 % of control | dose: 400.0 mg/kg/injection, schedule: Q04DX002 (ip), vehicle: saline with Tween-80 98 % of control

CC(=O)OC1C2CC(Cl)C1C2 (centres undefined)
inactive: [15] 100 % of control | [16] 109 % of control | [17] 105 % of control

COc1ccc(/C(C)=N/NS(=O)(=O)c2ccc(C)cc2)cc1OC
inactive: dose: 25.0 mg/kg/injection, schedule: Q01DX009 (ip), vehicle: other 97 % of control | dose: 50.0 mg/kg/injection, schedule: Q01DX009 (ip), vehicle: other 96 % of control | dose: 100.0 mg/kg/injection, schedule: Q01DX009 (ip), vehicle: other 93 % of control | dose: 200.0 mg/kg/injection, schedule: Q01DX009 (ip), vehicle: other 97 % of control | dose: 400.0 mg/kg/injection, schedule: Q01DX009 (ip), vehicle: other 88 % of control

COc1ccc2c(c1)CN(Cc1c(Cl)cccc1Cl)CO2
inactive: dose: 25.0 mg/kg/injection, schedule: Q01DX005 (ip), vehicle: Klucel (hydroxypropylcellulose) (HPC) 98 % of control | [9] 115 % of control and 97 % of control | [10] 103 % of control and 92 % of control | [11] 89 % of control

CCOC(=O)C1=C(C)O/C(=C/C=C/c2ccccc2)C1=O
inactive: [1] 102 % of control | [2] 98 % of control | [3] 103 % of control

COC1(OC)C2(Cl)C(Cl)=C(Cl)C1(Cl)C1CCCCC12 (centres undefined)
inactive: [4] 101 % of control | [5] 102 % of control | [6] 104 % of control

COC(=O)/C(=C\Sc1ccccc1)NC(C)=O
inactive: dose: 60.0 mg/kg/injection, schedule: Q01DX005 (ip), vehicle: Klucel (hydroxypropylcellulose) (HPC) 100 % of control | dose: 120.0 mg/kg/injection, schedule: Q01DX005 (ip), vehicle: Klucel (hydroxypropylcellulose) (HPC) 98 % of control | dose: 240.0 mg/kg/injection, schedule: Q01DX005 (ip), vehicle: Klucel (hydroxypropylcellulose) (HPC) 107 % of control

CNc1cc(NC)c2c(c1N)C(=O)c1ccccc1C2=O
inactive: dose: 50.0 mg/kg/injection, schedule: Q04DX002 (ip), vehicle: Klucel (hydroxypropylcellulose) (HPC) 103 % of control | dose: 100.0 mg/kg/injection, schedule: Q04DX002 (ip), vehicle: Klucel (hydroxypropylcellulose) (HPC) 100 % of control | dose: 200.0 mg/kg/injection, schedule: Q04DX002 (ip), vehicle: Klucel (hydroxypropylcellulose) (HPC) 101 % of control

CN1CCC(C(=O)NNc2ccccc2)CC1
inactive: dose: 50.0 mg/kg/injection, schedule: Q01DX005 (ip), vehicle: saline 100 % of control | dose: 100.0 mg/kg/injection, schedule: Q01DX005 (ip), vehicle: saline 102 % of control | dose: 200.0 mg/kg/injection, schedule: Q01DX005 (ip), vehicle: saline 102 % of control

CCOC(=O)C(NC(=O)C(Cl)Cl)C(O)c1ccccc1 (centres undefined)
inactive: dose: 50.0 mg/kg/injection, schedule: Q01DX005 (ip), vehicle: saline with Tween-80 100 % of control | dose: 100.0 mg/kg/injection, schedule: Q01DX005 (ip), vehicle: saline with Tween-80 100 % of control | dose: 200.0 mg/kg/injection, schedule: Q01DX005 (ip), vehicle: saline with Tween-80 89 % of control

CCCCCCC(=O)/C=C/c1cccc(OCOCC)c1
inactive: [15] 111 % of control and 113 % of control and 122 % of control | [16] 115 % of control and 122 % of control | [17] 108 % of control and 119 % of control

O=C(C[n+]1ccccc1Br)c1cccc([N+](=O)[O-])c1
inactive: dose: 6.25 mg/kg/injection, schedule: Q01DX009 (ip), vehicle: saline 103 % of control | [12] 107 % of control | [13] 99 % of control | [14] 103 % of control

CC12CCC3C(CCC4C(C)(C)C(O)CCC34C)(C1)OC2CO (centres undefined)
inactive: dose: 2.25 mg/kg/injection, schedule: Q01DX009 (ip), vehicle: Klucel (hydroxypropylcellulose) (HPC) 104 % of control | dose: 4.5 mg/kg/injection, schedule: Q01DX009 (ip), vehicle: Klucel (hydroxypropylcellulose) (HPC) 108 % of control | dose: 9.0 mg/kg/injection, schedule: Q01DX009 (ip), vehicle: Klucel (hydroxypropylcellulose) (HPC) 104 % of control | dose: 18.0 mg/kg/injection, schedule: Q01DX009 (ip), vehicle: Klucel (hydroxypropylcellulose) (HPC) 118 % of control

O=C(O)c1ccc([N+](=O)[O-])cc1O.O=C(O)c1ccc([N+](=O)[O-])cc1O.[Cu]
inactive: dose: 6.25 mg/kg/injection, schedule: Q01DX001 (ip), vehicle: saline with Tween-80 100 % of control | dose: 12.5 mg/kg/injection, schedule: Q01DX001 (ip), vehicle: saline with Tween-80 103 % of control | dose: 25.0 mg/kg/injection, schedule: Q01DX001 (ip), vehicle: saline with Tween-80 97 % of control

Cc1nc2c(cnn2C)c(=O)n1-c1ccccc1
inactive: [9] 96 % of control | [10] 98 % of control | [11] 100 % of control

Cc1nnsc1-c1n[nH]c(=S)n1N
inactive: dose: 25.0 mg/kg/injection, schedule: Q01DX001 (ip), vehicle: Klucel (hydroxypropylcellulose) (HPC) 106 % of control | dose: 50.0 mg/kg/injection, schedule: Q01DX001 (ip), vehicle: Klucel (hydroxypropylcellulose) (HPC) 107 % of control | dose: 100.0 mg/kg/injection, schedule: Q01DX001 (ip), vehicle: Klucel (hydroxypropylcellulose) (HPC) 101 % of control

Nc1ncnc2c1ccn2Cc1c(F)cccc1Cl
inactive: dose: 50.0 mg/kg/injection, schedule: Q01DX005 (ip), vehicle: distilled water + alcohol 100 % of control | dose: 100.0 mg/kg/injection, schedule: Q01DX005 (ip), vehicle: distilled water + alcohol 101 % of control | dose: 200.0 mg/kg/injection, schedule: Q01DX005 (ip), vehicle: distilled water + alcohol 105 % of control

C=C1C(=O)OC2/C=C(\C)CC/C=C(/C(=O)OC)C(OC(=O)C(C)C(C)O)C(OC(=O)C(C)(O)C(C)O)C12 (centres undefined)
inactive: dose: 6.0 mg/kg/injection, schedule: Q01DX009 (ip), vehicle: Klucel (hydroxypropylcellulose) (HPC) 122 % of control | dose: 8.0 mg/kg/injection, schedule: Q01DX009 (ip), vehicle: Klucel (hydroxypropylcellulose) (HPC) 122 % of control | dose: 12.0 mg/kg/injection, schedule: Q01DX009 (ip), vehicle: Klucel (hydroxypropylcellulose) (HPC) 105 % of control
